Measured values published in publication PMC8037814, “Polymorphic Characterization, Pharmacokinetics, and Anti-Inflammatory Activity of Ginsenoside Compound K Polymorphs” (Molecules, 2021).
“And” between values parts separate entries of the source, which are not always exact repeats. Equal entries are not always repeated. Where two headings read alike, the source gives them in different places.

Assays:
[1] = DSC thermal analysis of CK polymorphs; format: physicochemical; settings: 20 K/min from 20 to 400 °C, dry nitrogen flow
Procedure: DSC measurements were performed on a DSC204 Phoenix calorimeter (NETZSCH, Selb, Germany) with a heating rate of 20 K/min from 20 to 400 °C. The dry nitrogen flow was about 50 mL/min. Data were analyzed using NETZSCH analysis software.

[2] = Pharmacokinetics after oral administration of CK polymorphs in rats (20 mg/kg); format: in vivo, Sprague-Dawley rats; settings: p.o. 20 mg/kg, individual rats 1-3
Procedure: All samples were analyzed with a triple quadrupole LC-MS/MS (API 4000 LC-MS/MS, AB Sciex, Framingham, MA, USA) coupled with an Agilent 1200 HPLC system (Agilent Technologies, Palo Alto, CA, USA). The MS was equipped with an electrospray system (ESI). The N2 gas temperature and ion-spray voltage were set to 550 °C and 4.5 kV, respectively. CK was measured in multiple reaction monitoring (MRM) mode using a negative electrospray ionization source at m/z 667.4 → 621.2 for CK (CID 25.6 v) and m/z 271.2 → 228.8 for internal standard (IS, (E)-5-(4-fluorostyryl)-2-isopropylbenzene-1,3-diol, Welichem Biotech Inc., Wayburne Drive Burnaby, BC, Canada) (CID 28.3 v) with a dwell time of 0.1 s.
Rats were divided randomly into 5 groups of six animals each (sex in half) and given 7 days to acclimatize to the facility before the experiments began. The four forms of CK were suspended in 0.5% sodium carboxymethyl cellulose (CMC-Na) solution and orally administered to rats at a dose of 20 mg/kg. A CK solution in a mixed solvent of dimethyl sulfoxide (DMSO)/castor oil/physiologic saline (3:5:92, v/v) was intravenously administered to the remaining group via the tail vein at a dose of 10 mg/kg. Blood samples were collected by retro-orbital puncture at the following times: 0.167, 0.333, 0.667, 1, 2, 3, 4, 6, 9, 12, and 24 h for the oral administration, and at 0.0083, 0.05, 0.133, 0.25, 0.5, 1, 2, 4, 6, and 9 h for the intravenous administration. Plasma samples were obtained by centrifuging a heparinized blood tube at 4000 rpm for 5 min and then stored at −70 °C until analysis.
The procedure for drug extraction from plasma samples was as follows: 0.2 mL acetonitrile, 0.2 mL plasma sample, and 10 μL IS (1 µg/mL) were added into a 1.5 mL Eppendorf-type tube. This mixture was vortexed for 1 min and then treated with 0.8 mL of methyl tert-butyl ether (MTBE) to precipitate the plasma proteins. After a mechanical vortex for 1 min and subsequent centrifugation (4000 rpm, 5 min), 0.8 mL of the supernatant was transferred and blow-dried with N2 at 40 °C in a water bath. Finally, the residue was dissolved in 120 μL of mobile phase, and then 10 μL was subjected to HPLC for analysis. […] Intra- and inter-day precision and accuracy never exceeded 15% by analyzing six replicate samples.
The CK pharmacokinetic parameters in rats, including the area under the curve (AUC(0–t) and AUC(0–∞)), mean residence time (MRT(0–t) and MRT(0–∞)), maximum concentration (Cmax), time to maximum concentration (Tmax), half-life (t1/2), apparent distribution volume (V), and total plasma clearance (CL), were derived from plasma concentration-time curves by using non-compartmental analysis (NCA) with DAS 2.0 software (Drug And Statistics, Mathematical Pharmacology Professional Committee of China, Shanghai, China). The absolute bioavailability (Fabs) was calculated from the dose-adjusted ratio of AUCp.o. to AUCi.v.. One-way analysis of variance (ANOVA) by SPSS 11.5 (SPSS Inc., Chicago, IL, USA) was conducted to compare the primary PK parameters.

[3] = system: carrageenan-induced acute paw inflammation; experiment: Paw swelling test induced by carrageenan in rats; format: in vivo, Sprague-Dawley rats; design: paw volume: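 right hind paw volume measured with a plethysmometer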; settings: listed as From I; for paw volume / paw edema: mean±SD of 6 rats; for edema inhibition: versus model group
Procedure: Rats were divided into 11 groups of six animals each (sex in half): the normal group, the model group, indomethacin group (1 mg/kg), and form I, II, III, IV groups (each form set 10 mg/kg and 20 mg/kg groups, respectively). Indomethacin and CK were ground and suspended in 0.5% CMC-Na solution. […] The same volume of saline was injected into the normal group. […] Paw edema and inhibitory rate were calculated as the following formula, and the differences among groups were compared with the t-test. Paw edema (%) = (Vn − V0)/V0 × 100%. Vn: paw volume at different time intervals after carrageenan injection. V0: paw volume before carrageenan injection. Inhibitory rate (%) = (Em − Ee)/Em × 100%. Em: paw edema of the model group. Ee: paw edema of the experimental group.

[4] = Pharmacokinetics after oral administration of CK polymorphs in rats (20 mg/kg); format: in vivo, Sprague-Dawley rats; settings: 20 mg/kg; for bioavailability: p.o. 20 mg/kg vs i.v. 10 mg/kg, dose-adjusted AUC ratio, read-out: Fabs (absolute bioavailability); for half-life: read-out: t1/2z (converted); for Vd/F: read-out: Vz/F
[5] = 10 mg/kg p.o. qd 3 days, 3h after carrageenan
[6] = 10 mg/kg p.o. qd 3 days, 4h after carrageenan
[7] = 10 mg/kg p.o. qd 3 days, 5h after carrageenan
[8] = 10 mg/kg p.o. qd 3 days, 6h after carrageenan
[9] = 20 mg/kg p.o. qd 3 days, 3h after carrageenan
[10] = 20 mg/kg p.o. qd 3 days, 4h after carrageenan
[11] = 20 mg/kg p.o. qd 3 days, 5h after carrageenan
[12] = 20 mg/kg p.o. qd 3 days, 6h after carrageenan
[13] = female rats, p.o. 20 mg/kg, mean ± SD (n = 3)
[14] = female, Sprague-Dawley, rat, plasma, po, female rats, p.o. 20 mg/kg, mean ± SD (n = 3)
[15] = male rats, p.o. 20 mg/kg, mean ± SD (n = 3)
[16] = male, Sprague-Dawley, rat, plasma, po, male rats, p.o. 20 mg/kg, mean ± SD (n = 3)

**Q.** For `CC(C)=CCCC(C)(OC1OC(CO)C(O)C(O)C1O)C1CCC2(C)C1C(O)CC1C3(C)CCC(O)C(C)(C)C3CCC12C` [Form I, 20-O-β-D-glucopyranosyl-20(S)-protopanaxadiol], which “DSC onset of the decomposition endotherm (thermodynamical stability)” value [1] is on record?
**A.** 267.5 °C

**Q.** What about the “AUC(0-t)” value ([2]; female rats) of the same molecule?
**A.** 2017.26 ng·h/mL and 2120.78 ng·h/mL and 2470.06 ng·h/mL

**Q.** And the “AUC(0-∞)” value ([2]; female rats)?
**A.** 2050.82 ng·h/mL and 2124.00 ng·h/mL and 2473.25 ng·h/mL

**Q.** What about the CLz/F ([2]; female rats) of the same molecule?
**A.** 162 mL/min/kg and 157 mL/min/kg and 135 mL/min/kg

**Q.** And the Cmax ([2]; female rats)?
**A.** 440.01 ng/mL and 325.66 ng/mL and 594.33 ng/mL

**Q.** What about the Vz/F ([2]; female rats) of the same molecule?
**A.** 56.64 L/kg and 34.89 L/kg and 29.88 L/kg

**Q.** What about the “AUC(0-t)” value ([2]; male rats) of the same molecule?
**A.** 762.48 ng·h/mL and 1612.79 ng·h/mL and 1074.22 ng·h/mL

**Q.** What about the “AUC(0-∞)” value ([2]; male rats) of the same molecule?
**A.** 762.82 ng·h/mL and 1709.08 ng·h/mL and 1092.09 ng·h/mL

**Q.** What about the CLz/F ([2]; male rats) of the same molecule?
**A.** 437 mL/min/kg and 195 mL/min/kg and 305.2 mL/min/kg

**Q.** And the Cmax ([2]; male rats)?
**A.** 168.60 ng/mL and 425.66 ng/mL and 183.98 ng/mL

**Q.** What about the t1/2z ([2]; male rats) of the same molecule?
**A.** 2.87 h and 3.98 h and 2.06 h

**Q.** And the paw volume ([3]; 10 mg/kg p.o. qd 3 days, 0h (before carrageenan))?
**A.** 1.60±0.13

**Q.** What about the paw edema [3, 5] of the same molecule?
**A.** 61.02±11.75%

**Q.** And the paw volume [3, 5]?
**A.** 2.57±0.14

**Q.** And the edema inhibition [3, 5]?
**A.** 5.06%

**Q.** And the paw edema [3, 6]?
**A.** 51.30±10.45%

**Q.** What about the paw volume [3, 6] of the same molecule?
**A.** 2.42±0.19

**Q.** And the edema inhibition [3, 6]?
**A.** 17.74%

**Q.** What about the paw edema [3, 7] of the same molecule?
**A.** 34.69±9.89%

**Q.** And the paw volume [3, 7]?
**A.** 2.15±0.16

**Q.** And the edema inhibition [3, 7]?
**A.** 32.99%

**Q.** And the paw edema [3, 8]?
**A.** 27.53±8.13%

**Q.** What about the paw volume [3, 8] of the same molecule?
**A.** 2.03±0.08

**Q.** What about the edema inhibition [3, 8] of the same molecule?
**A.** 29.97%

**Q.** And the paw volume ([3]; 20 mg/kg p.o. qd 3 days, 0h (before carrageenan))?
**A.** 1.62±0.13

**Q.** What about the paw edema [3, 9] of the same molecule?
**A.** 52.64±19.00%

**Q.** What about the paw volume [3, 9] of the same molecule?
**A.** 2.45±0.16

**Q.** What about the edema inhibition [3, 9] of the same molecule?
**A.** 18.10%

**Q.** And the paw edema [3, 10]?
**A.** 43.25±16.04%

**Q.** And the paw volume [3, 10]?
**A.** 2.30±0.11

**Q.** And the edema inhibition [3, 10]?
**A.** 30.65%

**Q.** And the paw edema [3, 11]?
**A.** 31.96±15.31%

**Q.** And the paw volume [3, 11]?
**A.** 2.12±0.08

**Q.** What about the edema inhibition [3, 11] of the same molecule?
**A.** 38.25%

**Q.** What about the paw edema [3, 12] of the same molecule?
**A.** 24.52±13.39%

**Q.** What about the paw volume [3, 12] of the same molecule?
**A.** 2.00±0.09

**Q.** And the edema inhibition [3, 12]?
**A.** 37.62%

**Q.** What about the t1/2z ([4]; female rats, p.o. 20 mg/kg, individual rats 1-3) of the same molecule?
**A.** 2.57 h and 2.56 h

**Q.** And the “AUC(0–t)” value [4, 13]?
**A.** 2202.7 ± 237.26 ng·h/mL

**Q.** And the “AUC(0–∞)” value [4, 13]?
**A.** 2216.0 ± 225.74 ng·h/mL

**Q.** And the CLz/F [4, 13]?
**A.** 152 ± 14.7 mL/min/kg

**Q.** What about the Cmax [4, 13] of the same molecule?
**A.** 453.33 ± 134.83 ng/mL and 453.3 ± 134.8 ng/mL

**Q.** And the Vz/F [4, 13]?
**A.** 40.5 ± 14.2 L/kg

**Q.** And the t1/2z [4, 13]?
**A.** 3.0 ± 0.84 h

**Q.** What about the bioavailability ([4]; female, Sprague-Dawley, rat, plasma, po, female rats) of the same molecule?
**A.** 6.84%

**Q.** What about the half-life ([4]; female, Sprague-Dawley, rat, plasma, po, female rats, p.o. 20 mg/kg, individual rats 1-3) of the same molecule?
**A.** 4.03 h

**Q.** What about the AUC(0-inf) [4, 14] of the same molecule?
**A.** 2220 ± 226 ng·h/mL

**Q.** What about the Vd/F [4, 14] of the same molecule?
**A.** 40.5 ± 14.2 L/kg

**Q.** And the half-life [4, 14]?
**A.** 3.05 ± 0.84 h

**Q.** And the Vz/F ([4]; male rats, p.o. 20 mg/kg, individual rats 1-3)?
**A.** 77.79 L/kg and 48.49 L/kg and 105.00 L/kg

**Q.** What about the “AUC(0–t)” value [4, 15] of the same molecule?
**A.** 1149.8 ± 430.17 ng·h/mL

**Q.** And the “AUC(0–∞)” value [4, 15]?
**A.** 1188.0 ± 480.37 ng·h/mL

**Q.** And the CLz/F [4, 15]?
**A.** 312 ± 121 mL/min/kg

**Q.** What about the Cmax [4, 15] of the same molecule?
**A.** 259.4 ± 144.2 ng/mL

**Q.** What about the Vz/F [4, 15] of the same molecule?
**A.** 77.1 ± 28.3 L/kg

**Q.** And the t1/2z [4, 15]?
**A.** 3.0 ± 0.96 h

**Q.** And the bioavailability ([4]; male, Sprague-Dawley, rat, plasma, po, male rats)?
**A.** 3.92%

**Q.** And the AUC(0-t) [4, 16]?
**A.** 1150 ± 430 ng·h/mL

**Q.** And the CL/F ([4]; male, Sprague-Dawley, rat, plasma, po, male rats, p.o. 20 mg/kg, mean ± SD (n = 3), read-out: CLz/F (converted))?
**A.** 312 mL/min/kg

**Q.** And the Cmax ([4]; male, Sprague-Dawley, rat, plasma, po, male rats, p.o. 20 mg/kg, mean ± SD (n = 3), read-out: Cmax)?
**A.** 259 ± 144 ng/mL

**Q.** What about the Vd/F [4, 16] of the same molecule?
**A.** 77.1 ± 28.3 L/kg

**Q.** What about the half-life [4, 16] of the same molecule?
**A.** 2.97 ± 0.96 h
